Laboratory results as given in paper PMC4638363, “Linear Interaction Energy Based Prediction of Cytochrome P450 1A2 Binding Affinities with Reliability Estimation” (PLoS ONE, 2015).
Where two headings read alike, the source gives them in different places.

Experiments:
recombinant CYP 1A2 [1] = conditions: cited from earlier work
human CYP 1A2 [2] = biological target: T1, human CYP 1A2 (Homo sapiens, UniProt P05177)
T1 sequence (P05177 1-516): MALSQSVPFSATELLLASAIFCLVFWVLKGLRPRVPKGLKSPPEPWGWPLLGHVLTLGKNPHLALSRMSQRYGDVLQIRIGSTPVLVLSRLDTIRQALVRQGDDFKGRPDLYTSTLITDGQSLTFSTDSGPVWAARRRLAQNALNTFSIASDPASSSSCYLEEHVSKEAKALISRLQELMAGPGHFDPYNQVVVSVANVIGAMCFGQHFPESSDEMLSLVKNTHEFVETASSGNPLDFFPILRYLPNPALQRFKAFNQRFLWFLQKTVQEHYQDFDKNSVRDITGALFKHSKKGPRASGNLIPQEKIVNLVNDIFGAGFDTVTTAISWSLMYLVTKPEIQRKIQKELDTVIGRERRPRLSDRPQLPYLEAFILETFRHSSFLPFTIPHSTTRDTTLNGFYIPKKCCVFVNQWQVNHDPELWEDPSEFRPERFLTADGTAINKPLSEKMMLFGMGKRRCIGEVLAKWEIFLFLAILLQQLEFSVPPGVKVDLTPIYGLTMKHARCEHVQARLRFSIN

recombinant CYP 1A2 [3] = tested on: recombinant CYP 1A2
CYP 1A2 [4] = conditions: Table A, Source 1; ref Bayer HealthCare databases for CYP inhibition (eTOX); cited from earlier work
CYP 1A2 [5] = conditions: literature; cited from earlier work
recombinant CYP 1A2 [6] = conditions: training set; from literature IC50, Source 3
CYP 1A2 [7] = conditions: from literature IC50, Source 2 (Ref. 58)
CYP 1A2 [8] = conditions: cited from earlier work
human CYP 1A2 [9] = biological target: T1, human CYP 1A2; assay: in-house CYP 1A2 inhibition assay with 7-methoxyresorufin as substrate (resorufin fluorescence)
[10] = Table A, Source 3, ref Korhonen et al., J. Med. Chem. 2005
[11] = read-out: IC 50 (lit), Source 2, recombinant CYPs, phenacetin O-deethylation

Cc1ccc2ccccc2n1 [Compound 44, Quinaldine]
IC50 (recombinant CYP 1A2 [1]; [10]): 40 µM

Clc1ccc(-c2ccccc2)cc1 [Compound 67, 4-Chlorobiphenyl]
Residual (ΔGbind^Obs—ΔGbind^Calc) (human CYP 1A2 [2]): 0.1 kJ/mol
ΔGbind^Obs (recombinant CYP 1A2 [3]; human): -26.5 kJ/mol
IC50 (recombinant CYP 1A2 [1]; [10]): 49 µM

CC1CCC(=O)O1 (stereo not shown) [Compound 51, γ-Valerolactone]
Residual (ΔGbind^Obs—ΔGbind^Calc) (human CYP 1A2 [2]): 3.6 kJ/mol
ΔGbind^Obs (recombinant CYP 1A2 [3]): -12.2 kJ/mol
IC50 (recombinant CYP 1A2 [1]; [10]): 15000 µM

COC(=O)[C@H](c1ccccc1Cl)N1CCc2sccc2C1 [Compound 19, Clopidogrel]
IC50 (CYP 1A2 [4]): 24.2 µM
Reported inhibition mechanism (CYP 1A2 [5]): Substrate^69

Cc1cc(C)oc(=O)c1 [Compound 72, 4,6-Dimethyl-α-pyron]
ΔGbind^Obs (recombinant CYP 1A2 [6]): -15.2 kJ/mol
Residual (ΔGbind^Obs—ΔGbind^Calc) (human CYP 1A2 [2]): 4.4 kJ/mol
IC50 (recombinant CYP 1A2 [1]): 4500 µM

O=C1Cc2ccccc2O1 [Compound 60, 2-Coumarone]
Residual (ΔGbind^Obs—ΔGbind^Calc) (human CYP 1A2 [2]; training set): -1.1 kJ/mol
ΔGbind^Obs (recombinant CYP 1A2 [3]): -22.3 kJ/mol
IC50 (recombinant CYP 1A2 [1]; [10]): 260 µM

O=C1CCC(c2ccccc2)O1 (stereo not shown) [Compound 70, γ-Phenyl-γ-butyrolactone]
Residual (ΔGbind^Obs—ΔGbind^Calc) (human CYP 1A2 [2]; training set): 5.7 kJ/mol
ΔGbind^Obs (recombinant CYP 1A2 [3]): -16.9 kJ/mol
IC50 (recombinant CYP 1A2 [1]; [10]): 2300 µM

Clc1cccc2ccccc12 [Compound 29, 1-Chloronaphthalene]
Residual (ΔGbind^Obs–ΔG bind ^Calc), error in prediction (human CYP 1A2 [2]): -3.9 kJ/mol
ΔGbind^Obs (recombinant CYP 1A2 [3]; human): -26.4 kJ/mol
IC50 (recombinant CYP 1A2 [1]; [10]): 50 µM

Clc1ccccc1CN1CCc2sccc2C1 [Compound 8, Ticlopidine]
Reported inhibition mechanism (CYP 1A2 [5]): Competitive^66

Cc1c2ccncc2c(C)c2c1[nH]c1ccccc12 [Compound 5, Ellipticine]
ΔG bind (lit) (CYP 1A2 [7]): -41.8 ± 0.2 kJ/mol
IC50 (CYP 1A2 [8]; [11]): 110 ± 10 nM
IC50 (human CYP 1A2 [9]): 7 ± 2 nM
ΔΔG bind (human CYP 1A2 [9]; difference in ΔG bind between literature and in-house determined values): 6.9 kJ/mol
ΔG bind (inhouse) (human CYP 1A2 [9]; from in-house IC50 via Cheng-Prusoff and RTln(Ki)): -48.7 ± 0.7 kJ/mol

Fc1ccc([C@@H]2CCNC[C@H]2COc2ccc3c(c2)OCO3)cc1 [Compound 18, Paroxetine]
IC50 (CYP 1A2 [4]): 23.5 µM

c1ccc(-c2ccccc2)cc1 [Compound 65, Biphenyl]
Residual (ΔGbind^Obs—ΔGbind^Calc) (human CYP 1A2 [2]): -0.5 kJ/mol
ΔGbind^Obs (recombinant CYP 1A2 [3]; human): -23.5 kJ/mol
IC50 (recombinant CYP 1A2 [1]): 160 µM

Cc1cccc2ccccc12 [Compound 28, 1-Methylnaphthalene]
Residual (ΔGbind^Obs—ΔGbind^Calc) (human CYP 1A2 [2]; training set): -2.1 kJ/mol
ΔGbind^Obs (recombinant CYP 1A2 [3]; human): -24.5 kJ/mol
IC50 (recombinant CYP 1A2 [1]; [10]): 110 µM

Cc1ccc(C)c2ccccc12 [Compound 36, 1,4-Dimethylnaphthalene]
Residual (ΔGbind^Obs—ΔGbind^Calc) (human CYP 1A2 [2]; training set): -7.4 kJ/mol
ΔGbind^Obs (recombinant CYP 1A2 [3]; human): -33.0 kJ/mol
IC50 (recombinant CYP 1A2 [1]; [10]): 3.6 µM

Cc1nc2c([nH]1)c(=O)n(C)c(=O)n2Cc1ccco1 [Compound 24, Furafylline]
Reported inhibition mechanism (CYP 1A2 [5]): Mechanism-based^71

Clc1ccccc1-c1ccccc1 [Compound 66, 2-Chlorobiphenyl]
Residual (ΔGbind^Obs–ΔG bind ^Calc), error in prediction (human CYP 1A2 [2]; test set): 2.8 kJ/mol
ΔGbind^Obs (recombinant CYP 1A2 [3]; human): -22.6 kJ/mol
IC50 (recombinant CYP 1A2 [1]; [10]): 230 µM

Cc1ccc2cc(C)ccc2c1 [Compound 42, 2,6-Dimethylnaphthalene]
Residual (ΔGbind^Obs—ΔGbind^Calc) (human CYP 1A2 [2]): -1.9 kJ/mol
ΔGbind^Obs (recombinant CYP 1A2 [3]; human): -26.3 kJ/mol
IC50 (recombinant CYP 1A2 [1]): 52 µM

N[C@@H]1C[C@H]1c1ccccc1 (racemic) [Compound 15, Tranylcypromine]
IC50 (CYP 1A2 [4]): 10.4 µM

Cc1ccc2ccccc2c1 [Compound 30, 2-Methylnaphthalene]
Residual (ΔGbind^Obs—ΔGbind^Calc) (human CYP 1A2 [2]): -3.3 kJ/mol
ΔGbind^Obs (recombinant CYP 1A2 [3]; human): -24.2 kJ/mol
IC50 (recombinant CYP 1A2 [1]): 120 µM

Cc1ccc2ccc(C)cc2c1 [Compound 43, 2,7-Dimethylnaphthalene]
Residual (ΔGbind^Obs–ΔG bind ^Calc), error in prediction (human CYP 1A2 [2]; test set): 0.0 kJ/mol
ΔGbind^Obs (recombinant CYP 1A2 [3]; human): -25.8 kJ/mol
IC50 (recombinant CYP 1A2 [1]; [10]): 65 µM

Cc1cc2ccccc2cn1 [Compound 49, 3-Methylisoquinoline]
IC50 (recombinant CYP 1A2 [1]; [10]): 21 µM
